This test relates to L1210 leukemia ip in BDF1 mice, survival T/C. As to the kind of experiment: NCI In Vivo Anticancer Drug Screen. Data for tumor model L1210 Leukemia (intraperitoneal) in B6D2F1 (BDF1) mice. The settings on record: endpoint: mean survival time, higher = longer survival. Summed up: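 Tumor was transplanted into mice, which were then dosed with test compound or vehicle alone. Survival was recorded for each group, and the treated figure was expressed relative to the control figure.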

The mark [1] stands for this setting: dose: 100.0 mg/kg/injection, schedule: Q01DX009 (ip), vehicle: Klucel (hydroxypropylcellulose) (HPC).
Setting [2] is: dose: 100.0 mg/kg/injection, schedule: Q04DX003 (ip), vehicle: Klucel (hydroxypropylcellulose) (HPC).
The mark [3] stands for this setting: dose: 200.0 mg/kg/injection, schedule: Q01DX009 (ip), vehicle: Klucel (hydroxypropylcellulose) (HPC).
[4] abbreviates: dose: 200.0 mg/kg/injection, schedule: Q04DX003 (ip), vehicle: Klucel (hydroxypropylcellulose) (HPC).
The mark [5] stands for this setting: dose: 400.0 mg/kg/injection, schedule: Q04DX003 (ip), vehicle: Klucel (hydroxypropylcellulose) (HPC).
Where [6] appears, read: dose: 100.0 mg/kg/injection, schedule: Q01DX001 (ip), vehicle: saline.
[7] abbreviates: dose: 200.0 mg/kg/injection, schedule: Q01DX001 (ip), vehicle: saline.
Where [8] appears, read: dose: 400.0 mg/kg/injection, schedule: Q01DX001 (ip), vehicle: saline.
Setting [9] is: dose: 50.0 mg/kg/injection, schedule: Q01DX009 (ip), vehicle: Klucel (hydroxypropylcellulose) (HPC).

Several values for one entry are separate records, joined by “and”; a condition that tells them apart may be missing. Equal entries are not always repeated. Toxic doses and inconclusive results are not listed.

Consider `COc1cc(C(=O)NCC2(C)OC3(OC(=O)C2O)C(=O)N/C(=C(\C=O)C(C)=O)OC3C(O)C2CN2C(C)=O)c2cccc(C)c2c1` (centres undefined), for which the T/C is 107 % of control (dose: 0.05 mg/kg/injection, schedule: Q01DX015 (oral), vehicle: clinical formulation); 104 % of control and 120 % of control (dose: 0.1 mg/kg/injection, schedule: Q01DX001 (ip), vehicle: clinical formulation); 113 % of control (dose: 0.1 mg/kg/injection, schedule: Q01DX015 (oral), vehicle: clinical formulation); 111 % of control (dose: 0.15 mg/kg/injection, schedule: Q03DX005 (ip), vehicle: clinical formulation); 103 % of control (dose: 0.2 mg/kg/injection, schedule: Q01DX001 (ip), vehicle: clinical formulation); 105 % of control (dose: 0.2 mg/kg/injection, schedule: Q07DX003 (ip), vehicle: clinical formulation). The T/C is 95 % of control and 115 % of control (dose: 0.4 mg/kg/injection, schedule: Q01DX001 (ip), vehicle: clinical formulation); 107 % of control (dose: 0.8 mg/kg/injection, schedule: Q01DX001 (ip), vehicle: clinical formulation); 114 % of control (dose: 3.5 micrograms/kg/injection, schedule: Q03DX005 (ip), vehicle: clinical formulation); 112 % of control (dose: 6.0 micrograms/kg/injection, schedule: Q01DX015 (ip), vehicle: clinical formulation); 124 % of control (dose: 6.0 micrograms/kg/injection, schedule: Q01DX045 (ip), vehicle: clinical formulation); 122 % of control (dose: 7.0 micrograms/kg/injection, schedule: Q03DX005 (ip), vehicle: clinical formulation). In addition, the T/C by setting is: (dose: 12.5 micrograms/kg/injection, schedule: Q01DX006 (iv), vehicle: clinical formulation) 109 % of control; (dose: 12.5 micrograms/kg/injection, schedule: Q01DX015 (im), vehicle: clinical formulation) 103 % of control; (dose: 12.5 micrograms/kg/injection, schedule: Q01DX045 (ip), vehicle: clinical formulation) 118 % of control; (dose: 13.0 micrograms/kg/injection, schedule: Q01DX Z (ip), vehicle: saline) 113 % of control; (dose: 13.0 micrograms/kg/injection, schedule: Q07DX003 (ip), vehicle: clinical formulation) 118 % of control; (dose: 25.0 micrograms/kg/injection, schedule: Q01DX006 (iv), vehicle: clinical formulation) 101 % of control. The T/C runs as follows: (dose: 25.0 micrograms/kg/injection, schedule: Q01DX015 (im), vehicle: clinical formulation) 109 % of control; (dose: 25.0 micrograms/kg/injection, schedule: Q01DX Z (ip), vehicle: saline) 113 % of control; (dose: 25.0 micrograms/kg/injection, schedule: Q07DX003 (ip), vehicle: clinical formulation) 124 % of control; (dose: 50.0 micrograms/kg/injection, schedule: Q01DX006 (iv), vehicle: clinical formulation) 115 % of control; (dose: 50.0 micrograms/kg/injection, schedule: Q01DX015 (im), vehicle: clinical formulation) 115 % of control; (dose: 50.0 micrograms/kg/injection, schedule: Q01DX Z (ip), vehicle: saline) 98 % of control and 107 % of control. Moreover, the T/C runs as follows: (dose: 100.0 micrograms/kg/injection, schedule: Q01DX006 (iv), vehicle: clinical formulation) 123 % of control; (dose: 100.0 micrograms/kg/injection, schedule: Q01DX015 (im), vehicle: clinical formulation) 110 % of control; (dose: 100.0 micrograms/kg/injection, schedule: Q01DX015 (ip), vehicle: clinical formulation) 95 % of control; (dose: 100.0 micrograms/kg/injection, schedule: Q01DX Z (ip), vehicle: saline) 89 % of control.
For `COc1ccc(I)c([N+](=O)[O-])c1`, the T/C by setting is: under setting [1], 96 % of control; under setting [2], 100 % of control; under setting [3], 96 % of control; under setting [4], 94 % of control; under setting [5], 103 % of control.
Turning to `Cc1cnc(N)cn1` (tested in a mixture with another compound), the T/C runs as follows: under setting [2], 102 % of control; under setting [4], 109 % of control; under setting [5], 88 % of control.
Take `Oc1ccc(I)c2cccnc12`: the T/C reads like this: (dose: 22.5 mg/kg/injection, schedule: Q01DX009 (ip), vehicle: saline) 165 % of control; (dose: 45.0 mg/kg/injection, schedule: Q01DX009 (ip), vehicle: saline) 240 % of control; (dose: 90.0 mg/kg/injection, schedule: Q01DX009 (ip), vehicle: saline) 297 % of control; (dose: 100.0 mg/kg/injection, schedule: Q01DX001 (ip), vehicle: carboxymethylcellulose (CMC)) 93 % of control; (dose: 100.0 mg/kg/injection, schedule: Q01DX009 (ip), vehicle: saline) 169 % of control; (dose: 180.0 mg/kg/injection, schedule: Q01DX009 (ip), vehicle: saline) 206 % of control. Further, the T/C runs as follows: (dose: 200.0 mg/kg/injection, schedule: Q01DX001 (ip), vehicle: carboxymethylcellulose (CMC)) 90 % of control; (dose: 400.0 mg/kg/injection, schedule: Q01DX001 (ip), vehicle: carboxymethylcellulose (CMC)) 95 % of control.
As for `CN(C)CCCC#N`, the T/C reads like this: (dose: 100.0 mg/kg/injection, schedule: Q04DX003 (ip), vehicle: saline) 97 % of control; (dose: 200.0 mg/kg/injection, schedule: Q04DX003 (ip), vehicle: saline) 95 % of control.
Take `Nc1nnc(N)n1N`: the T/C reads like this: (dose: 87.5 mg/kg/injection, schedule: Q04DX003 (ip), vehicle: Klucel (hydroxypropylcellulose) (HPC)) 105 % of control; (dose: 175.0 mg/kg/injection, schedule: Q04DX003 (ip), vehicle: Klucel (hydroxypropylcellulose) (HPC)) 100 % of control; (dose: 350.0 mg/kg/injection, schedule: Q04DX003 (ip), vehicle: Klucel (hydroxypropylcellulose) (HPC)) 103 % of control.
As for `COc1cc(/C=N/NC(=O)CNC(=O)c2ccccc2)ccc1O`, the T/C was 102 % of control (dose: 100.0 mg/kg/injection, schedule: Q01DX009 (ip), vehicle: saline with Tween-80); 102 % of control (dose: 200.0 mg/kg/injection, schedule: Q01DX009 (ip), vehicle: saline with Tween-80); 101 % of control (dose: 400.0 mg/kg/injection, schedule: Q01DX009 (ip), vehicle: saline with Tween-80).
As for `O=C1CCC(=O)C2CC=CCC12` (centres undefined), the T/C is 101 % of control (dose: 100.0 mg/kg/injection, schedule: Q## X003 (ip), vehicle: saline); 108 % of control (dose: 200.0 mg/kg/injection, schedule: Q## X003 (ip), vehicle: saline); 98 % of control (dose: 400.0 mg/kg/injection, schedule: Q## X003 (ip), vehicle: saline).
Regarding `Oc1c(Br)cc(F)cc1Br`, the T/C is, setting by setting: (dose: 100.0 mg/kg/injection, schedule: Q04DX002 (ip), vehicle: saline with Tween-80) 98 % of control; (dose: 200.0 mg/kg/injection, schedule: Q04DX002 (ip), vehicle: saline with Tween-80) 94 % of control.
As for `CCOC(=O)C(C)(C)[Si](C)(C)C`, the T/C runs as follows: (dose: 50.0 mg/kg/injection, schedule: Q01DX001 (ip), vehicle: saline) 97 % of control; under setting [6], 103 % of control; under setting [7], 97 % of control; under setting [8], 97 % of control.
Turning to `O=C(O)CC(Sc1ccccc1)c1ccccc1` (centres undefined), the T/C is, setting by setting: under setting [9], 98 % of control; under setting [1], 101 % of control; (dose: 177.0 mg/kg/injection, schedule: Q04DX002 (ip), vehicle: saline) 94 % of control; under setting [3], 96 % of control; (dose: 266.0 mg/kg/injection, schedule: Q04DX002 (ip), vehicle: saline) 94 % of control; (dose: 400.0 mg/kg/injection, schedule: Q04DX002 (ip), vehicle: saline) 105 % of control. Besides, the T/C (dose: 600.0 mg/kg/injection, schedule: Q04DX002 (ip), vehicle: saline) is 103 % of control.
Turning to `CC(NC(=O)C(CO)NC(=O)c1cnc2ccccc2n1)C(=O)OC(C)(C)C` (centres undefined), the T/C is, setting by setting: under setting [6], 102 % of control; under setting [7], 102 % of control; under setting [8], 115 % of control.
For `O=c1nc(NCCc2cnc[nH]2)nc(NCCc2cnc[nH]2)[nH]1`, the T/C reads like this: under setting [9], 100 % of control; under setting [1], 100 % of control; under setting [3], 92 % of control.

These data come from PubChem BioAssay AID248 (DTP/NCI, 2004).
